# Results: article PMC4501412 (Memórias do Instituto Oswaldo Cruz, 2015)
# Legend:
# [1] = ref Ferreiro et al. 2002; cited from earlier work
# [2] = test system: Salmonella typhimurium; conditions: ref Rosenkranz Jr et al. 1976; cited from earlier work
# [3] = test system: Bloodstream trypomastigotes of T. cruzi (Y strain); assay: In vitro trypanocidal assay; assay type: cell-based; conditions: Trypanosoma cruzi, 24 h, read-out: IC50/24 h
# [4] = test system: DNA damage in human whole blood cells; assay: In vitro alkaline single cell gel electrophoresis; assay type: cell-based; conditions: positive control, 160 µM
structure (smiles),measurement,setting,value
"Cc1ncc([N+](=O)[O-])n1CC(O)CCl (centres unmarked) [Compound 4, ornidazole]",Mutagenicity (in words),[1],known to be a mutagenic agent
"O=C(Cn1ccnc1[N+](=O)[O-])NCc1ccccc1 [Compound 8, benznidazole]",Ames test result,[2],positive
same,IC50,[3],9.7 ± 2.4 µM
"COS(C)(=O)=O [MMS, Methyl methane-sulfonate]",TAU value (total DNA damage score),[4],454.3 ± 9.2 TAU
same,TAU value (total DNA damage score),[4]; listed as methyl methane-sulfonate,"MI: mutagenicity inde; NA: not applicable; TAU: total arbitrary units for the positive control, methyl methane-sulfonate value was 454.3 ± 9.2."
